In brackets after ≈: the same amount, converted by molar mass. Read-outs that look alike come from different tables or passages of the source.
Test: Solubility of the crystalline forms in methylcyclohexane (Mullin method)
Type: physicochemical
Conditions: for solubility: methylcyclohexane, organic solvent or mixture, thermodynamic from solid, read-out: Solubility Concentration; for solubility / Solubility Concentration: at equilibrium; for Thermodynamic stability compared with form I: inferred from the lower solubility in methylcyclohexane, 10 °C to 70 °C
Method: The solubility of the 2 crystalline forms of rimonabant in the same solvent was also measured. The method used is described in Measurement of Solubility in J. W. Mullin. Crystallization: 3rd edition, Ipswich (GB): Butterworth-Heinemann, 1993, p. 105.
The measurements were carried out for each of the crystalline forms, in solution in methylcyclohexane at temperatures varying from 10° C. to 70° C. At equilibrium, for each temperature, the undissolved crystalline form is characterized by infrared spectrography, in particular by its main bands.

solubility (10 °C, in methylcyclohexane, 10.00 °C) | solubility (20 °C, in methylcyclohexane, 20.00 °C) | solubility (30 °C, in methylcyclohexane, 30.00 °C) | solubility (40 °C, in methylcyclohexane, 40.00 °C) | solubility (50 °C, in methylcyclohexane, 50.00 °C) | solubility (60 °C, in methylcyclohexane, 60.00 °C) | solubility (70 °C, in methylcyclohexane, 70.00 °C) | Solubility Concentration (in methylcyclohexane, 10.00 °C) | Solubility Concentration (in methylcyclohexane, 20.00 °C) | Solubility Concentration (in methylcyclohexane, 30.00 °C) | Solubility Concentration (in methylcyclohexane, 40.00 °C) | Solubility Concentration (in methylcyclohexane, 50.00 °C) | Solubility Concentration (in methylcyclohexane, 60.00 °C) | Solubility Concentration (in methylcyclohexane, 70.00 °C) | Solubility compared with form I (in methylcyclohexane, all temperatures between 10 °C and 70 °C) | Thermodynamic stability compared with form I (listed as crystalline form II of rimonabant) | Compound | Thermodynamic stability compared with form I (listed as rimonabant form II)
4.86 mg/mL (≈ 10.5 mM) | 6.92 mg/mL (≈ 14.9 mM) | 9.3 mg/mL (≈ 20.1 mM) | 13.7 mg/mL (≈ 29.5 mM) | 20.4 mg/mL (≈ 44 mM) | 31.2 mg/mL (≈ 67.3 mM) | 52.4 mg/mL (≈ 113 mM) |  |  |  |  |  |  |  |  |  | Cc1c(C(=O)NN2CCCCC2)nn(-c2ccc(Cl)cc2Cl)c1-c1ccc(Cl)cc1 [Form I, N-Piperidino-5-(4-chlorophenyl)-1-(2,4-dichlorophenyl)-4-methyl-3-pyrazolecarboxamide, reference compound] | 
 |  |  |  |  |  |  | 4.50 mg/mL (≈ 9.7 mM) | 6.60 mg/mL (≈ 14.2 mM) | 9.20 mg/mL (≈ 19.8 mM) | 12.60 mg/mL (≈ 27.2 mM) | 19.00 mg/mL (≈ 41 mM) | 29.20 mg/mL (≈ 63 mM) | 42.00 mg/mL (≈ 90.6 mM) | less soluble | stability greater than that of form I | Cc1c(C(=O)NN2CCCCC2)nn(-c2ccc(Cl)cc2Cl)c1-c1ccc(Cl)cc1 [Form II, N-piperidino-5-(4-chlorophenyl)-1-(2,4-dichlorophenyl)-4-methyl-3-pyrazolecarboxamide] | thermodynamically more stable than rimonabant form I
